From ChEMBL document CHEMBL4266030, “Molecular Basis for Multiple Omapatrilat Binding Sites within the ACE C-Domain: Implications for Drug Design” (J Med Chem, 2018)

Key:
[1] = molecular target: T1, Angiotensin-converting enzyme (Homo sapiens, UniProt P12821); assay: Inhibition of human fully glycosylated ACE N-terminal domain expressed in CHO cells using MCA-RPPGFSAFK(Dnp)-OH as substrate preincubated for 15 mins followed by substrate addition measured after 10 mins by fluorescence spectrophotometric analysis
T1 sequence (P12821 whole entry, the tested form may be a part): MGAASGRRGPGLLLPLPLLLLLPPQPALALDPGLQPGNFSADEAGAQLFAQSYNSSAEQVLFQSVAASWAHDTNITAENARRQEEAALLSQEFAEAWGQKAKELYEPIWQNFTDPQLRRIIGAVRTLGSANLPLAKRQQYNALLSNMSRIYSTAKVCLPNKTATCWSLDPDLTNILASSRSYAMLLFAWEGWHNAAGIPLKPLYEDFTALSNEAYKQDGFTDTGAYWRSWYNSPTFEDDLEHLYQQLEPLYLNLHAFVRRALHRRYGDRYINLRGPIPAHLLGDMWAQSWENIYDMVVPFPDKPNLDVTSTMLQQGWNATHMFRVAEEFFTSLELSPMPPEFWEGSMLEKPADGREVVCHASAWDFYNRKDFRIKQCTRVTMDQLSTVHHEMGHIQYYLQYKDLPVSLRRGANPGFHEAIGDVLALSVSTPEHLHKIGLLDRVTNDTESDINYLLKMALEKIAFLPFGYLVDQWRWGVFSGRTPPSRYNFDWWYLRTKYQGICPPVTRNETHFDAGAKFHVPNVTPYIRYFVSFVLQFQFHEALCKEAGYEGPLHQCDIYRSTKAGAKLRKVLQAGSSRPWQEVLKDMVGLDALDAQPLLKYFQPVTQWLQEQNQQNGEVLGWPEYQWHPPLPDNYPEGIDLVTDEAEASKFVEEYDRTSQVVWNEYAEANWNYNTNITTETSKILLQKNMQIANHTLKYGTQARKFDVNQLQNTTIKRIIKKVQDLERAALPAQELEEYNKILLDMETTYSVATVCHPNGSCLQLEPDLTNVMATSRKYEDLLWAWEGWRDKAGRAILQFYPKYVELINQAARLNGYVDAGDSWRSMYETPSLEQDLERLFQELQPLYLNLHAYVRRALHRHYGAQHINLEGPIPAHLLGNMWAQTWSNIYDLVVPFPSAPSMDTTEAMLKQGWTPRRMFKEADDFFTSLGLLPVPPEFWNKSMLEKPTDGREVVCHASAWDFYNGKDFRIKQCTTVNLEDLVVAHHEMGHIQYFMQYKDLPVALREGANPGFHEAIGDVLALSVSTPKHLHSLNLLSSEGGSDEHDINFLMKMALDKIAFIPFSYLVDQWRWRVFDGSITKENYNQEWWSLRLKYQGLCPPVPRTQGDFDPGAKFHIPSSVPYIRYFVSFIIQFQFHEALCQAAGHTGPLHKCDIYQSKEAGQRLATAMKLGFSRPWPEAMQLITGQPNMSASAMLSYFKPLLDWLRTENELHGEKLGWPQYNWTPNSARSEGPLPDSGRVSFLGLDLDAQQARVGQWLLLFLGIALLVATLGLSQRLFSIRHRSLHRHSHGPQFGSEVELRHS

[2] = molecular target: T1, Angiotensin-converting enzyme; assay: Inhibition of human fully glycosylated ACE N-terminal domain expressed in CHO cells using Cbz-Phe-His-Leu as substrate preincubated for 15 mins followed by substrate addition measured after 10 mins by fluorescence spectrophotometric analysis
[3] = molecular target: T1, Angiotensin-converting enzyme; assay: Inhibition of human fully glycosylated ACE C-terminal domain expressed in CHO cells using Cbz-Phe-His-Leu as substrate preincubated for 15 mins followed by substrate addition measured after 10 mins by fluorescence spectrophotometric analysis
[4] = molecular target: T1, Angiotensin-converting enzyme; assay: Inhibition of human fully glycosylated ACE C-terminal domain expressed in CHO cells using MCA-RPPGFSAFK(Dnp)-OH as substrate preincubated for 15 mins followed by substrate addition measured after 10 mins by fluorescence spectrophotometric analysis
[5] = molecular target: T1, Angiotensin-converting enzyme; assay: Inhibition of human fully glycosylated ACE N-terminal domain expressed in CHO cells using Cbz-Phe-His-Leu as substrate preincubated for 15 mins followed by substrate addition measured after 10 mins by Morrison's plot analysis
[6] = molecular target: T1, Angiotensin-converting enzyme; assay: Inhibition of human fully glycosylated ACE C-terminal domain expressed in CHO cells using Cbz-Phe-His-Leu as substrate preincubated for 15 mins followed by substrate addition measured after 10 mins by Morrison's plot analysis

For `O=C(N[C@H]1CCS[C@H]2CCC[C@@H](C(=O)O)N2C1=O)[C@H](Cc1ccccc1)SS[C@@H](Cc1ccccc1)C(=O)N[C@H]1CCS[C@H]2CCC[C@@H](C(=O)O)N2C1=O`, the IC50 [1] was 2100 nM, the IC50 [2] was 2200 nM and the IC50 [3] was 2800 nM. The IC50 [4] was 1800 nM.

Molecule `O=C(N[C@H]1CCS[C@H]2CCC[C@@H](C(=O)O)N2C1=O)[C@@H](S)Cc1ccccc1` [OMAPATRILAT] has a Ki [5] of 0.015 nM and a Ki [6] of 0.016 nM.
